The record followed here is patent US20220073557A1, “FLUORINATED BILE ACIDS” (NZP UK LIMITED, priority 2018, published 2022).

Read-outs that look alike come from different tables or passages of the source.

The test system of experiment [1] is sAD and familial AD (PSEN1 mutants) patient fibroblasts. Put plainly: Total cellular ATP levels in Alzheimer's disease patient fibroblasts. The class given is cell-based, human. The settings on record: 24 hour treatment at 100 nM, 21% restores to control levels.
Description: Briefly, fibroblasts were cultured as and plated into white 384 well plates with 5000 cells per well in 50 μl of media volume. The plates are left overnight in an incubator to allow the fibroblasts to adhere to the plate surface. The following morning the Glucose based medium is replaced with 25 μl of Galactose based medium. The compounds are added to the plates using a ECHO 550 liquid handling system. The wells were dosed to provide an 8-point concentration range of 0.06 nM-300 nM of compound. After dosing the wells are topped up with a further 25 μl of Galactose based medium and then left in an incubator for 24 hours. Following this incubation the medium is removed from the plate and the wells are washed twice with sterile PBS. The wells are filled with 25 μl of Sterile PBS followed by 12.5 μl of Lysis solution from the ATPlite™ Luminescence ATP detection assay system (Perkin Elmer), including 16 cell free wells to use as blank controls. The plate is then placed on a rotary shaker for 5 mins at 700 rpm. Following the shaking 12.5 μl of ATP substrate solution (Perkin Elmer) is added to each well and a further 5 min of shaking. The plate is then placed in darkness for 10 minutes prior to reading. Using a PHERAStar® plate reader, luminescence intensity is recorded. Following the ATP assay the plates are immediately assayed for DNA content in a CyQUANT® assay.
Immediately following The ATP assay DNA content is assessed with the CyQUANT® NF Cell Proliferation Assay Kit (ThermoFisher). CyQUANT® buffer is prepared immediately before the assay and is comprised of 1 ul CyQUANT® dye per ml×1 HBSS solution. 12.5 ul of CyQUANT® buffer is added to each well. Plate left in incubator for 1 hour then read on a PHERAStar® Plate reader with excitation at 497 nm and emission at 520 nm.
Data shown in the Table 6 below is the mean increase in ATP levels after 24 hour treatment with compounds at 100 nM concentration.
For experiment [2], the system named is dopaminergic neurons derived from sPD patients (iNeurons). The experiment can be described thus: Activated caspase 3 immunofluorescence staining in iNeurons. Format: cell-based, human. The settings on record: untreated sPD 162. The procedure:
(§1) Briefly, iNPCs are plated in a 6-well plate and cultured for 2 days in DMEM/F-12 medium with Glutamax™ supplemented with 1% NEAA, 2% B27 (Gibco) and 2.5 μM of DAPT. On day 3, DAPT is removed and the medium is supplemented with 1 μM smoothened agonist (SAG) and FGF8 (75 ng/ml) for additional 10 days. Neurons are replated at this stage. Subsequently SAG and FGF8 are withdrawn and replaced with BDNF (30 ng/ml), GDNF (30 ng/ml), TGF-b3 […] and dcAMP (2 mM, Sigma) for 15 days.
Cells are plated into 96 well plates and fixed using 4% paraformaldehyde for 30 minutes. After PBS washes cells are permeabilised using 0.1% Triton™ X-100 for 10 minutes and blocked using 5% goat serum for 1 hour. Cells are incubated with primary antibodies tyrosine hydroxylase (St John's Laboratory); DAT (Abcam); Tuj (Millipore); Tom20 (BD Biosciences); activated caspase 3 (Cell Signaling); alpha synuclein (Cell Signaling); phosphorylated alpha synuclein (Millipore) at 4° C. for 16 hours. Cells are washed using PBS-Tween® and incubated with Alexa Fluor™-conjugated secondary antibodies 488 and 568 (Invitrogen) and Hoescht (Sigma) 1 μM prior to imaging. Imaging was performed using the Opera Phenix™ high content imaging system (Perkin Elmer).

Experiment [3] has the same test system. The experiment can be described thus: Mitochondrial function and neuronal morphology measurements in iNeurons from sPD patients. The class given is cell-based, human. The settings on record: for EC50: Homo sapiens, Neuron. Here is the method:
Fibroblasts were cultured in DMEM (Invitrogen) and routinely subcultured every 3-5 days using trypsin to dissociate them.
as §1
Cells are plated in 96 well plates; for live imaging cells are incubated for one hour at 37 degree with 80 nM tetramethlyrhodamine (TMRM), 1 μM LysoTracker® Green (Invitrogen) and Hoechst Stain solution (Sigma) at 1 μM before imaging using Opera Phenix™. Cellular ATP measurements are undertaken using ATPlite kit (Perkin Elmer) as per manufacturer's instructions. Mitochondrial reactive oxygen species generation was assessed using mitochondrial NpFR2 (probe; a kind gift from Dr Liz New, University of Sydney, Australia) at 20 μM and Hoechst stain solution at 1 μM for 30 mins at 37° C., then the dyes are removed and cells images using Opera Phenix™. Images generated from the live imaging experiments were analysed using Harmony® (Perkin Elmer software). We developed protocols in order to segment nucleus, cell boundary and processes, mitochondria, lysosomes, autophagosomes. We only analysed the z projection images collected from the z stacks.

Experiment [4] shares this test system. The experiment can be described thus: Dopamine ELISA in iNeurons. The class given is cell-based, human. Particulars: untreated sPD 0. The procedure: as §1
Dopamine ELISA is performed using Dopamine research ELISA kit (Labor Diagnostika Nord GmbH&Co. KG) as per manufacturers instructions. Dopamine release is obtained incubating the cells at 37° C. using three different conditions at the same time per line. Medium is removed in all wells then the first well is incubated with HBSS with Ca^2+ and Mg^2+ (Gibco by Life Technologies) for 30 minutes, the second well is incubated in HBSS with Ca^2+ and Mg^2+ for 15 minutes and then 56 mM KCl (Fisher chemical) is added for another 15 minutes and the third well is incubated with HBSS without Ca^2+ and Mg^2+ (Gibco by Life Technologies) but with 2 mM EDTA for 15 min and then 56 mM KCl is added for another 15 minutes. Straight away media is collected in an eppendorf and cells are harvested using Accutase®, centrifuge at 400 g for 4 min and resuspended in 10 μl of PBS. […]
(In general: An ELISA detects its analyte on a solid surface through an enzyme-linked reagent.)

Experiment [5] has as its system mitochondrial respiratory chain complex I. Put plainly: Complex I assay, left striatum brain homogenate of mice dosed with or without MPTP. Format: in vivo, mouse. Particulars: for Complex I activity with concurrent MPTP treatment: left striatum. The procedure:
(§2) Ex vivo mice brain was homogenated in a buffer of 250 mM sucrose, 20 mM HEPES, 3 mM EDTA, pH 7.5 at 4° C. Homogenisation was carried out using a Dounce homogenizer, for cortex samples, and by repetitive passage through a 0.5 mm syringe for isolated striatum. Samples were then incubated with 30 μl of detergent from the AbCam colorimetric Complex I assay kit on ice for 20 minutes. Samples are then centrifuged at 13,000 rpm for 30 mins. Triplicate samples per condition were blocked using the kit blocking buffer on the AbCam colorimetric Complex I assay kit plate for 3 hours. Samples are then washed using the kit wash buffer 3 times before the addition of the kit assay buffer containing NADH and colorimetric dye. The assay plate is read on a plate reader in a kinetic assay programme reading 450 nm in a 30 second interval for 50 minutes.

For experiment [6] the test system is unchanged. Put plainly: Complex I assay, whole brain homogenate of dosed wild type mice. Format: in vivo. The settings on record: wild type mouse whole brain homogenate, FIG. 3. Here is the method:
as §2

Experiment [7] concerns sporadic PD patient fibroblast lines. Put plainly: Seahorse assay (oxygen consumption, extracellular acidification rate) in sPD fibroblasts. Format: cell-based, human. Here is the method: Fibroblasts are plated into Seahorse 24 well plates with 50,000 cells per well. Cells are left to attach for 2 days. Media is changed to Seahorse DMEM media with glucose and sodium pyruvate and left to equilibrate at 37 degrees normal air CO2 for 1 hour. The plate is entered into the Seahorse machine and run on a program of mix (2 minutes), wait (3 minutes) and measure (3 minutes). After three measurements of basal respiration and ECAR; 0.5 μM oligomycin is injected after which another three measurements are taken; then 0.5 μM of FCCP is injected and three measurements taken and finally 1 μM rotenone is injected and three measurements taken. After all measurements are complete, cells are stained with 10 μM Hoescht and imaged using the InCell to count the number of cells per well for normalisation. This classical ritochondrial stress test experimental protocol allows us to calculate the basal mitochondrial respiration, ATP linked respiration (the amount which is coupled to ATP generation), the maximal and spare respiratory capacity, the non-mitochondrial respiration rate and the extracellular acidification rate which is a proxy measure of glycosolysis.

In general, EC50 refers to the midpoint of the concentration-response curve. For the compound `C[C@H](CCC(=O)O)[C@H]1CC[C@H]2[C@@H]3[C@@H](O)C[C@@H]4C[C@@H](O)C(F)(F)C[C@]4(C)[C@H]3CC[C@]12C` [Compound 7, 2,2-difluoro-3β,7β-dihydroxy-5β-cholanic acid], the “% increase over vehicle treated (mean increase in ATP levels)” value in experiment [1] is on record as 24%. Further, the “Activated caspase 3 levels” value in experiment [2] was 100 % of level in iNeurons from Controls. In addition, the EC50 in experiment [3] (read-out: ATP EC50 (nM)) was 0.8 nM; in experiment [3] (read-out: MMP EC50 (nM)) it was 0.52 nM. Moreover, the “Neuronal morphology (elongation; % controls)” value in experiment [3] (iNeurons from sPD patients, untreated sPD 48) was 78 % controls. Besides, in experiment [3] (iNeurons from sPD patients, untreated sPD 50), the “ATP normalisation (% of controls)” value is recorded as 101 % of controls. Moreover, the “MMP normalisation (% of controls)” value in experiment [3] (iNeurons from sPD patients, untreated sPD 52) was 100 % of controls. The “ROS (Normalisation) (% controls)” value in experiment [3] (iNeurons from sPD patients, untreated sPD 115) was 103 % controls. The “Dopamine level (increase in dopamine release)” value in experiment [4] is recorded as roughly 5% increase in. Moreover, in experiment [5] (left striatum mouse brain homogenate, Vehicle+12 mg Compound 7 alone, FIG. 4), the “Increase in complex I activity over untreated controls” value is “approximately 30%”. The “Complex I activity with concurrent MPTP treatment” value is reported as “retains complex I at normal levels” in experiment [5] (MPTP + 1 mg Compound 7, p<0.01 vs MPTP alone) and “appears to prevent any loss of complex I activity by MPTP” in experiment [5] (MPTP + increased doses (4 mg, 12 mg) of Compound 7). The “Increase in Complex I activity compared to untreated controls” value is “approximately 380%” in experiment [6] (4 mg/kg dose) and “approximately 800%” in experiment [6] (12 mg/kg dose). Besides, the “Mitochondrial respiration (basal, maximal and ATP linked respiration; oxygen consumption)” value in experiment [7] (6 sPD fibroblast lines, dosed at EC90 (UDCA 100 nM, Compound 7 50 nM), FIG. 1A-1C) is “significantly improves all three mitochondrial parameters”. Also, the “Extracellular acidification rate (ECAR, proxy measure of glycolysis)” value in experiment [7] (6 sPD fibroblasts, FIG. 2) is given as “significantly improved”. In experiment [7] (Homo sapiens, Fibroblast, read-out: EC90 concentration), the EC90 was found to be 50 nM.
